80 compounds from US7067520B2, “Preventive or therapeutic medicines for diabetes containing fused-heterocyclic compounds or their salts” (Ishihara Sangyo Kaisha, Ltd., priority 2000, dated 2006) can be followed below.

`COC(=O)c1c(SC)nc2ccnn2c1Cl` [compound 119]: the melting point is 105 to 113 °C.
Compound `COc1ccc(Nc2c(C#N)c(SC)nc3ccnn23)cc1` [compound 169] registered a melting point of 214 to 215 °C.
Consider `CSc1nc2ccnn2c(NCCc2ccccc2)c1C#N` [compound 12], for which the melting point came to 107 °C.
The figure for `COC(=O)c1c(SC)nc2ccnn2c1O` [compound 155] is 192 to 194 °C.
With `CSc1nc2ccnn2c(SCc2ccccc2)c1C#N` [compound 183], the melting point was 138 °C.
In turn, `CSc1nc2ccnn2c(NCc2ccccc2)c1[N+](=O)[O-]` [compound 125] showed a melting point of 136.5 to 138.5 °C.
In turn, `CSc1nc2nc(SC)c(C#N)c(NCc3ccccc3)n2n1` [compound 36] gave a melting point of 154 °C.
On to `C=CCSc1nc2ccnn2c(NCc2ccccc2)c1C#N` [compound 77], for which the melting point was in the range of 90 to 91.5 °C.
In the case of `CSc1nc2ccnn2c(NCc2cccs2)c1C#N` [compound 180] it was 142 °C.
`CSc1nc2ccnn2c(Nc2cccc(C#N)c2)c1C(=O)O` [compound 134] gave a melting point of 162.5 to 164.5 °C.
As for `CCOCSc1nc2ccnn2c(NCc2ccccc2)c1C#N` [compound 117], the melting point was 130.5 to 133.5 °C.
`C#CCSc1nc2ccnn2c(NCc2ccccc2)c1C#N` [compound 95] gave a melting point of 142.2 to 144.2 °C.
Take `CSc1nc2nc3ccccc3n2c(N)c1C#N` [compound 45]: the melting point is greater than 250 °C.
Compound `CCC(CC)Sc1nc2ccnn2c(NCc2ccncc2)c1C#N` [compound 115] displayed a melting point of 129 to 133.4 °C.
In the case of `COc1nc2ccnn2c(NCc2ccncc2)c1C#N` [compound 153] it was 193 to 195 °C; in that of `CSc1nc2ccnn2c(NCc2ccc([N+](=O)[O-])cc2)c1C#N` [compound 16], 215 °C; in that of `N#Cc1c(SC2CCCC2)nc2ccnn2c1N` [compound 103], 270.5 to 271.3 °C.
`CSc1nc2ccnn2c(Nc2cccc(C(=O)O)c2)c1C#N` [compound 195] came in with a melting point of 168 to 171 °C.
In the case of `CSc1nc(NCc2ccccc2)n2nccc2n1` [compound 39], the melting point came out at 133 °C.
For `C#CCNc1c(S(C)(=O)=O)c(SC)nc2ccnn12` [compound 59], the melting point is 175 °C.
Compound `N#Cc1c(Cc2ccccc2)nc2ccnn2c1NCc1ccncc1` [compound 90] had a melting point of 195 to 198 °C.
In the case of `CSc1nc2ccnn2c(Nc2ccc(N(C)C)cc2)c1C#N` [compound 202] it was 250 to 252 °C; in that of `CSc1nc2ccnn2c(NOCC2CCCO2)c1C#N` (centres unmarked) [compound 213], 143 to 144 °C.
As to `CSc1nc2ccnn2c(Cl)c1C#N` [compound 62, 7-chloro-5-methylthiopyrazolo[1,5-a]pyrimidine-6-carbonitrile], the melting point lay within 201 to 202 °C.
Turning to `CSc1nc2ccnn2c(NCC#N)c1C#N` [compound 84], the melting point came out at 207 °C.
The compound `COC(=O)c1ccc(CNc2c(C#N)c(SC)nc3ccnn23)cc1` [compound 23] had a melting point of 171 °C.
Consider `CSc1nc2ccnn2c(Nc2ccc(O)cc2)c1C#N` [compound 170], for which the melting point is 250 to 256 °C.
The compound `N#Cc1c(C2CCCCC2)nc2ccnn2c1N` [compound 91] came in with a melting point greater than 250 °C.
The compound `CSc1nc2ccnn2c(NCc2ccncc2)c1S(C)(=O)=O` [compound 63] registered a melting point of 195 to 196 °C.
`COCSc1nc2ccnn2c(NCc2ccccc2)c1C#N` [compound 107]: the melting point lay within 137.4 to 141.4 °C.
The compound `CSc1nc2cc(C)nn2c(O)c1C#N` [compound 184] gave a melting point greater than 250 °C.
`CSc1nc2ccnn2c(Nc2ccc(C(N)=O)cc2)c1C#N` [compound 197]: the melting point was greater than 280 °C.
The figure for `CSc1nc2ccnn2c(NCc2ccco2)c1C#N` [Compound No. 78, 7-furfurylamino-5-methylthiopyrazolo[1,5-a]pyrimidine-6-carbonitrile] is 110 °C; for `CSc1nc2ccnn2c(NCc2ccncc2)c1C(=O)O` [compound 129] it is 155 to 157 °C.
`CCOC(=O)CNc1c(C#N)c(SC)nc2ccnn12` [compound 13] came in with a melting point of 184 to 185 °C.
`COc1ccc(CNc2c(C#N)c(SC)nc3ccnn23)cc1` [compound 56] registered a melting point of 137 °C.
`C=CCSc1nc2ccnn2c(N)c1C#N` [compound 75] showed a melting point of 258.5 to 259 °C.
`CSc1nc2ccnn2c(Nc2cccc(C#N)c2)c1C(=O)OCc1ccccc1` [compound 148]: the melting point lay within 141 to 142 °C.
In turn, `CSc1nc2ccnn2c(Nc2ccc(C(=O)O)cc2)c1C#N` [compound 176] came in with a melting point greater than 250 °C.
Compound `CSc1nc2ccnn2c(OCc2ccccc2)c1C#N` [Compound No. 51, 7-benzyloxy-5-methylthiopyrazolo[1,5-a]pyrimidine-6-carbonitrile] displayed a melting point of 194 °C.
With `N#Cc1c(SC2CCCC2)nc2ccnn2c1NCc1ccccc1` [compound 104], the melting point fell in the range of 115.8 to 116.6 °C.
Compound `CSc1nc2ccnn2c(Cl)c1C(=O)OCc1ccccc1` [compound 146] came in with a melting point of 52 to 54 °C.
The figure for `CSc1nc2ccnn2c(NC(C)=O)c1C#N` [Compound No. 7] is greater than 280 °C.
The figure for `CSc1nc2ccnn2c(N2CCC(C)CC2)c1C#N` [compound 160] is 118 to 120 °C; for `CSc1nc2ccnn2c(Nc2ccc(S(=O)(=O)N(C)C)cc2)c1C#N` [compound 150] it is 303 to 306 °C (dec.).
`CSc1nc2ccnn2c(NOc2ccccc2)c1C#N` [compound 179] showed a melting point greater than 250 °C.
In the case of `N#Cc1c(SCc2ccccc2)nc2ccnn2c1N` [compound 69] it was 245.6 to 245.9 °C.
The figure for `C#CCSc1nc2ccnn2c(NCc2ccncc2)c1C#N` [compound 96] is 208.5 to 208.7 °C; for `CSc1nc2ccnn2c(Nc2cccc(Cl)c2)c1C#N` [compound 162] it is 161 to 162 °C; for `CCSc1nc2ccnn2c(NCc2ccccc2)c1C#N` [compound 67] it is 112 to 113.4 °C.
`CSc1nc2c(Br)cnn2c(N)c1C#N` [compound 54] returned a melting point greater than 250 °C.
In the case of `CSc1nc2cc(C)nn2c(NCc2ccccc2)c1C#N` [compound 187] it was 204 to 205 °C; in that of `CSc1nc2ccnn2c(NCC(=O)c2ccccc2)c1C#N` [compound 18], 212 to 213 °C; in that of `CSc1nc2ccnn2c(N(Cc2ccccn2)Cc2ccccn2)c1C#N` [compound 6], 139 °C.
Regarding `CSc1nc2ccnn2c(NCOCc2ccccc2)c1C#N` [compound 10], the melting point fell in the range of 63 to 64 °C.
For `CSc1nc2ccnn2c(Nc2ccc3ncsc3c2)c1C#N` [compound 166], the melting point was 140 to 141 °C.
`CSc1nc2ccnn2c(OCCOc2ccccc2)c1C#N` [compound 182] displayed a melting point of 125 °C.
For the compound `N#Cc1c(Cc2ccccc2)nc2ccnn2c1N` [compound 87], the melting point worked out at 242 °C.
The figure for `N#Cc1c(Cc2ccccc2)nc2ccnn2c1NCc1ccccc1` [compound 88] is 163 °C; for `CSc1nc2ccnn2c(NCc2cccc(Cl)c2)c1C#N` [compound 32] it is 155 °C.
`CSc1nc2ccnn2c(NCc2ccccc2Cl)c1C#N` [compound 33] had a melting point of 160 °C.
Consider `CSc1nc2ccnn2c(N)c1S(C)(=O)=O` [compound 58], for which the melting point lay in the range of 230 to 233 °C.
Take `CSc1nc2ccnn2c(Nc2ccc(OC(F)(F)F)cc2)c1C#N` [compound 167]: the melting point was 243 to 244 °C.
Turning to `CSc1nc2ccnn2c(NCc2ccccc2)c1S(C)(=O)=O` [compound 61], the melting point lay in the range of 163 to 164 °C.
As for `CSc1nc2ccnn2c(NCCC(C)C)c1C#N` [compound 19], the melting point fell in the range of 87 to 88 °C.
The figure for `CSc1nc2ccnn2c(NOCC2OCCO2)c1C#N` [compound 208] is 152 to 153 °C.
With `COc1cccc(Nc2c(C#N)c(SC)nc3cc(C)nn23)c1` [compound 192], the melting point was in the range of 142 to 143 °C.
Take `CSc1nc2ccnn2c(Nc2ccc(S(C)(=O)=O)cc2)c1C#N` [compound 201]: the melting point was 241 to 244 °C.
`CSc1nc2ccnn2c(Nc2ccc3c(c2)CCC3)c1C#N` [compound 165] displayed a melting point of 146 to 148 °C.
On to `CSc1nc2ccnn2c(NCc2ccc(Cl)cc2)c1C#N` [compound 31], for which the melting point amounted to 167 °C.
For `CSc1nc2ccnn2c(O)c1C#N` [compound 49, 7-hydroxy-5-methylthiopyrazolo[1,5-a]pyrimidine-6-carbonitrile], the melting point was greater than 250 °C.
The compound `N#Cc1c(-c2ccccc2)nc2ccnn2c1NCc1ccccc1` [compound 86] yielded a melting point of 120 to 122 °C.
Regarding `CSc1nc2cc(C)nn2c(NCc2ccncc2)c1C#N` [compound 188], the melting point was 190 to 191 °C.
Consider `CSc1nc2ccnn2c(NOCC2CCCCO2)c1C#N` (centres unmarked) [compound 209], for which the melting point came to 161 °C.
As for `CSc1nc2cc(-c3ccccc3)nn2c(N)c1C#N` [compound 44], the melting point was determined as 233 °C.
For the compound `CSc1nc2ccnn2c(NOCCC2OCCCO2)c1C#N` [compound 217], the melting point is 193 to 195 °C.
Compound `N#Cc1c(-c2ccccc2)nc2ccnn2c1N` [compound 85] gave a melting point greater than 250 °C.
Compound `COC(=O)c1ccc(Nc2c(C#N)c(SC)nc3ccnn23)cc1` [compound 171] showed a melting point of 205 to 206 °C.
Compound `CSc1nc2ccnn2c(NC2CCCC2)c1[N+](=O)[O-]` [compound 127] yielded a melting point of 132 to 134 °C.
In turn, `CCC(CC)Sc1nc2ccnn2c(NCc2ccccc2)c1C#N` [compound 114] showed a melting point of 107 to 108.3 °C.

For orientation: melting point means the temperature, or range, at which the solid turns liquid.
